Results taken from patent US12252524B2, “GIP/GLP1 co-agonist compounds” (Eli Lilly and Company, priority 2018, dated 2025).
Numbered stars: 1 amine (or outer) side, 2 acyl side, 3 side chain; on linkers, the order of the positions; unused ones are H or OH. Square brackets hold non-standard residues; d marks the D form. Side chains are listed from the residue outwards. Peptide text beside a SMILES is read from it. * marks the point of attachment. C18 diacid = O=C(O)CCCCCCCCCCCCCCCCC(=O)*; γGlu = O=C(O)[C@H](CCC(=O)[*:2])N[*:1]; AEEA = NCCOCCOCC(=O)O; Aib = CC(C)(N)C(=O)O

How the values were obtained:
[1] = biological target: human GLP-1 receptor (GLP-1R) (Homo sapiens, UniProt P43220); assay: cAMP pharmacological functional assay in presence of casein, hGLP-1R; format: cell-based; settings: HEK293 cells expressing hGLP-1R, 0.1% Casein, geometric mean; read-out: hGLP1R cAMP Rel EC50 nM (SEM, n)
Sequence of human GLP-1 receptor (GLP-1R) (P43220 24-463): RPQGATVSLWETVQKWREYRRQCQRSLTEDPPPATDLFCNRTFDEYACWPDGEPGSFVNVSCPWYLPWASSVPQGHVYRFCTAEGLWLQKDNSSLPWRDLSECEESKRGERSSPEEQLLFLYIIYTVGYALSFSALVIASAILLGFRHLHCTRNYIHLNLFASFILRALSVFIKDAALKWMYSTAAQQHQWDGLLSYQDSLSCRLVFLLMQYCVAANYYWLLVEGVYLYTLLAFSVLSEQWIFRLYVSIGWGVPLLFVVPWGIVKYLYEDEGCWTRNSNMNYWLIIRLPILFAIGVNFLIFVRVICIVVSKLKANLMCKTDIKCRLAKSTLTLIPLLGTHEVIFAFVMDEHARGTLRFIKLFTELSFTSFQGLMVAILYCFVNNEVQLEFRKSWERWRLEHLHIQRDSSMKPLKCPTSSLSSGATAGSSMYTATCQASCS

human GIP receptor = biological target: T1, human GIP receptor (Homo sapiens, UniProt P48546); assay: [125I]-GIP binding (SPA), human GIP receptor; settings: read-out: hGIPR Ki, nM (SEM, n)
T1 construct: expressed in transfected cells; crude membranes
T1 sequence (P48546 22-466): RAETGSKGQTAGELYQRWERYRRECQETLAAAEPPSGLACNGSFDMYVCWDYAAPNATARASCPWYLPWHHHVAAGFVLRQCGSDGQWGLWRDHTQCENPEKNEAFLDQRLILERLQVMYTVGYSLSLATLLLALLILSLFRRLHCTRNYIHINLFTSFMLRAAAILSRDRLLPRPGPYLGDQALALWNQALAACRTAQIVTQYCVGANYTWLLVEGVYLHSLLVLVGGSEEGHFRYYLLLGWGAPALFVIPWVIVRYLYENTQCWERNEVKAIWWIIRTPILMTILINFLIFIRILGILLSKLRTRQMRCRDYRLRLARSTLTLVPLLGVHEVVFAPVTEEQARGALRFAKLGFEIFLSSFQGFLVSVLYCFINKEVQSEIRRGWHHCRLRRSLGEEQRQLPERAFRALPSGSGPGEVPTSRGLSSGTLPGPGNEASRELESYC

human GLP-1R = human GLP-1R (Homo sapiens, UniProt P43220); assay: [125I]-GLP-1 binding (SPA), human GLP-1 receptor; design: expressed in transfected cells; crude membranes; settings: read-out: hGLP1R Ki, (nM) (SEM, n)
Sequence of human GLP-1R (P43220 24-463): as the sequence (P43220 24-463) above
How it was run: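 Frozen cell pellets are lysed on ice in hypotonic Tris buffer, pH 7.5, homogenized, and centrifuged to a membrane pellet resuspended at about 1 to 3 mg/mL. Binding is then measured in HEPES-based buffer at pH 7.4, and curves are fitted to give IC50 and Ki.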

[2] = biological target: T2, gastric inhibitory peptide receptor (GIPR) (Homo sapiens, UniProt P48546); assay: cAMP pharmacological functional assay in presence of casein, hGIPR; format: cell-based; settings: HEK293 cells expressing hGIPR, 0.1% Casein, geometric mean; read-out: hGIPR cAMP Rel EC50 nM (SEM, n)
T2 sequence (P48546 22-466): T1 sequence (P48546 22-466)

human Gcg receptor = biological target: T3, human Gcg receptor (Homo sapiens, UniProt P47871); assay: [125I]-Glucagon binding (SPA), human Gcg receptor; settings: read-out: hGLcgR Ki, nM (SEM, n)
T3 construct: expressed in transfected cells; crude membranes
T3 sequence (P47871 26-477): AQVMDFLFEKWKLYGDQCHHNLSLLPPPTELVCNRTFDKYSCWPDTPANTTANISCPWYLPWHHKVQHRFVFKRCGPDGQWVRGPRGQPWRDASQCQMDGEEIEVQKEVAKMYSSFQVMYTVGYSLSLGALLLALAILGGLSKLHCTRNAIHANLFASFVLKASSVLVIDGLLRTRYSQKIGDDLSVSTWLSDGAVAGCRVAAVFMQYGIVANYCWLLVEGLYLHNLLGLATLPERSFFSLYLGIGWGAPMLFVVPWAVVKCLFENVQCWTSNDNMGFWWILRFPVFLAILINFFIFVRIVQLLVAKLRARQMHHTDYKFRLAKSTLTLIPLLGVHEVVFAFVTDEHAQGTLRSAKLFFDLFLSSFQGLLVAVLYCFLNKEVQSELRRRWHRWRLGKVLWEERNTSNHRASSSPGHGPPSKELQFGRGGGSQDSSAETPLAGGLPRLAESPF
How it was run: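 Cell pellets were lysed in hypotonic Tris buffer, pH 7.5, homogenized, and spun at low then high speed to give crude membranes. Ki was derived from the fitted IC50.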

| Structure (SMILES) | EC50 [1] [nM] | Ki (human GIP receptor) [nM] | Ki (human GLP-1R) [nM] | EC50 [2] [nM] | Ki (human Gcg receptor) [nM] |
| --- | --- | --- | --- | --- | --- |
| CC[C@H](C)[C@H](NC(=O)[C@H](CC(C)C)NC(=O)[C@H](Cc1ccc(O)cc1)NC(=O)[C@H](CCC(=O)O)NC(=O)[C@@H](NC(=O)[C@H](Cc1ccccc1)NC(=O)[C@H](C)NC(=O)C(C)(C)NC(=O)[C@H](CCC(N)=O)NC(=O)[C@H](C)NC(=O)[C@H](CCCCNC(=O)COCCOCCNC(=O)COCCOCCNC(=O)CC[C@H](NC(=O)CCCCCCCCCCCCCCCCC(=O)O)C(=O)O)NC(=O)[C@H](CCC(=O)O)NC(=O)[C@H](CC(=O)O)NC(=O)[C@H](CC(C)C)NC(=O)[C@H](CC(C)C)NC(=O)[C@@H](NC(=O)[C@H](CO)NC(=O)[C@H](Cc1ccc(O)cc1)NC(=O)[C@H](CC(=O)O)NC(=O)[C@H](CO)NC(=O)[C@@H](NC(=O)[C@H](Cc1ccccc1)NC(=O)[C@@H](NC(=O)CNC(=O)[C@H](CCC(=O)O)NC(=O)C(C)(C)NC(=O)[C@@H](N)Cc1ccc(O)cc1)[C@@H](C)O)[C@@H](C)O)[C@@H](C)CC)[C@@H](C)CC)C(=O)N[C@@H](CCC(=O)O)C(=O)NCC(=O)NCC(N)=O [Example 269] (H-Y[Aib]EGTFTSDYSILLDEK([AEEA-AEEA-γGlu-C18 diacid])AQ[Aib]AFIEYLIEGG-NH2) | 0.0595 | 0.152 | 7.1 | 0.257 | > 1100 |
| CC[C@H](C)[C@H](NC(=O)[C@H](CC(C)C)NC(=O)[C@H](Cc1ccc(O)cc1)NC(=O)[C@H](CCC(=O)O)NC(=O)[C@@H](NC(=O)[C@H](Cc1ccccc1)NC(=O)[C@H](CCC(=O)O)NC(=O)C(C)(C)NC(=O)[C@H](CCC(N)=O)NC(=O)[C@H](C)NC(=O)[C@H](CCCCNC(=O)COCCOCCNC(=O)COCCOCCNC(=O)CC[C@H](NC(=O)CCCCCCCCCCCCCCCCC(=O)O)C(=O)O)NC(=O)[C@H](CCCCN)NC(=O)[C@H](CC(=O)O)NC(=O)[C@H](CC(C)C)NC(=O)[C@H](CC(C)C)NC(=O)[C@@H](NC(=O)[C@H](CO)NC(=O)[C@H](Cc1ccc(O)cc1)NC(=O)[C@H](CC(=O)O)NC(=O)[C@H](CO)NC(=O)[C@@H](NC(=O)[C@H](Cc1ccccc1)NC(=O)[C@@H](NC(=O)CNC(=O)[C@H](CCC(=O)O)NC(=O)C(C)(C)NC(=O)[C@@H](N)Cc1ccc(O)cc1)[C@@H](C)O)[C@@H](C)O)[C@@H](C)CC)[C@@H](C)CC)C(=O)N[C@@H](CCC(=O)O)C(=O)NCC(=O)NCC(=O)N1CCC[C@H]1C(=O)N[C@@H](CO)C(=O)N[C@@H](CO)C(=O)NCC(N)=O [Example 270] (H-Y[Aib]EGTFTSDYSILLDKK([AEEA-AEEA-γGlu-C18 diacid])AQ[Aib]EFIEYLIEGGPSSG-NH2; N-terminus assumed) | 0.128 | 0.117 | 8.27 | 0.328 | > 1190 |
| CC[C@H](C)[C@H](NC(=O)[C@H](CC(C)C)NC(=O)[C@H](Cc1ccc(O)cc1)NC(=O)[C@H](CCC(=O)O)NC(=O)[C@@H](NC(=O)[C@H](Cc1ccccc1)NC(=O)[C@H](CCC(=O)O)NC(=O)C(C)(C)NC(=O)[C@H](CCC(N)=O)NC(=O)[C@H](C)NC(=O)[C@H](CCCCNC(=O)COCCOCCNC(=O)COCCOCCNC(=O)CC[C@H](NC(=O)CCCCCCCCCCCCCCCCC(=O)O)C(=O)O)NC(=O)[C@H](CCCCN)NC(=O)[C@H](CC(=O)O)NC(=O)[C@H](CC(C)C)NC(=O)[C@H](CC(C)C)NC(=O)[C@@H](NC(=O)[C@H](CO)NC(=O)[C@H](Cc1ccc(O)cc1)NC(=O)[C@H](CC(=O)O)NC(=O)[C@H](CO)NC(=O)[C@@H](NC(=O)[C@H](Cc1ccccc1)NC(=O)[C@@H](NC(=O)CNC(=O)[C@H](CCC(=O)O)NC(=O)C(C)(C)NC(=O)[C@@H](N)Cc1ccc(O)cc1)[C@@H](C)O)[C@@H](C)O)[C@@H](C)CC)[C@@H](C)CC)C(=O)N[C@@H](CCC(=O)O)C(=O)NCC(=O)NCC(N)=O [Example 271] (H-Y[Aib]EGTFTSDYSILLDKK([AEEA-AEEA-γGlu-C18 diacid])AQ[Aib]EFIEYLIEGG-NH2) | 0.0352 | 0.107 | 5.09 | 0.334 | > 1150 |
| CC[C@H](C)[C@H](NC(=O)[C@H](CC(C)C)NC(=O)[C@H](Cc1ccc(O)cc1)NC(=O)[C@H](CCC(=O)O)NC(=O)[C@@H](NC(=O)[C@H](Cc1ccccc1)NC(=O)[C@H](C)NC(=O)C(C)(C)NC(=O)[C@H](CCC(N)=O)NC(=O)[C@H](C)NC(=O)[C@H](CCCCNC(=O)COCCOCCNC(=O)COCCOCCNC(=O)CC[C@H](NC(=O)CCCCCCCCCCCCCCCCC(=O)O)C(=O)O)NC(=O)[C@H](CCCCN)NC(=O)[C@H](CC(=O)O)NC(=O)[C@H](CC(C)C)NC(=O)[C@H](CC(C)C)NC(=O)[C@@H](NC(=O)[C@H](CO)NC(=O)[C@H](Cc1ccc(O)cc1)NC(=O)[C@H](CC(=O)O)NC(=O)[C@H](CO)NC(=O)[C@@H](NC(=O)[C@H](Cc1ccccc1)NC(=O)[C@@H](NC(=O)CNC(=O)[C@H](CCC(=O)O)NC(=O)C(C)(C)NC(=O)[C@@H](N)Cc1ccc(O)cc1)[C@@H](C)O)[C@@H](C)O)[C@@H](C)CC)[C@@H](C)CC)C(=O)N[C@@H](C)C(=O)NCC(=O)NCC(N)=O [Example 273] (H-Y[Aib]EGTFTSDYSILLDKK([AEEA-AEEA-γGlu-C18 diacid])AQ[Aib]AFIEYLIAGG-NH2) | 0.0352 | 0.0698 | 1.13 | 0.079 | 724 |
| CC[C@H](C)[C@H](NC(=O)[C@H](CC(C)C)NC(=O)[C@H](Cc1ccc(O)cc1)NC(=O)[C@H](CCC(=O)O)NC(=O)[C@@H](NC(=O)[C@H](Cc1ccccc1)NC(=O)[C@H](C)NC(=O)[C@H](CCC(N)=O)NC(=O)[C@H](CCC(N)=O)NC(=O)[C@H](C)NC(=O)[C@H](CCCCNC(=O)COCCOCCNC(=O)COCCOCCNC(=O)CC[C@H](NC(=O)CCCCCCCCCCCCCCCCC(=O)O)C(=O)O)NC(=O)[C@H](CCCCN)NC(=O)[C@H](CC(=O)O)NC(=O)[C@H](CC(C)C)NC(=O)[C@H](CC(C)C)NC(=O)[C@@H](NC(=O)[C@H](CO)NC(=O)[C@H](Cc1ccc(O)cc1)NC(=O)[C@H](CC(=O)O)NC(=O)[C@H](CO)NC(=O)[C@@H](NC(=O)[C@H](Cc1ccccc1)NC(=O)[C@@H](NC(=O)CNC(=O)[C@H](CCC(=O)O)NC(=O)C(C)(C)NC(=O)[C@@H](N)Cc1ccc(O)cc1)[C@@H](C)O)[C@@H](C)O)[C@@H](C)CC)[C@@H](C)CC)C(=O)N[C@@H](CCC(=O)O)C(=O)NCC(=O)NCC(N)=O [Example 294] (H-Y[Aib]EGTFTSDYSILLDKK([AEEA-AEEA-γGlu-C18 diacid])AQQAFIEYLIEGG-NH2) | 0.185 | 0.205 | 2.92 | 0.183 | 629 |
| CC[C@H](C)[C@H](NC(=O)[C@H](CC(C)C)NC(=O)[C@H](Cc1ccc(O)cc1)NC(=O)[C@H](CCC(=O)O)NC(=O)[C@@H](NC(=O)[C@H](Cc1ccccc1)NC(=O)[C@H](C)NC(=O)[C@H](Cc1c[nH]cn1)NC(=O)[C@H](CCC(N)=O)NC(=O)[C@H](C)NC(=O)[C@H](CCCCNC(=O)COCCOCCNC(=O)COCCOCCNC(=O)CC[C@H](NC(=O)CCCCCCCCCCCCCCCCC(=O)O)C(=O)O)NC(=O)[C@H](CCCCN)NC(=O)[C@H](CC(=O)O)NC(=O)[C@H](CC(C)C)NC(=O)[C@H](CC(C)C)NC(=O)[C@@H](NC(=O)[C@H](CO)NC(=O)[C@H](Cc1ccc(O)cc1)NC(=O)[C@H](CC(=O)O)NC(=O)[C@H](CO)NC(=O)[C@@H](NC(=O)[C@H](Cc1ccccc1)NC(=O)[C@@H](NC(=O)CNC(=O)[C@H](CCC(=O)O)NC(=O)C(C)(C)NC(=O)[C@@H](N)Cc1ccc(O)cc1)[C@@H](C)O)[C@@H](C)O)[C@@H](C)CC)[C@@H](C)CC)C(=O)N[C@@H](CCC(=O)O)C(=O)NCC(=O)NCC(N)=O [Example 295] (H-Y[Aib]EGTFTSDYSILLDKK([AEEA-AEEA-γGlu-C18 diacid])AQHAFIEYLIEGG-NH2) | 0.116 | 0.181 | 4.12 | 0.281 | > 1000 |
